According to patent US8691990B2, “6-heterocyclic imidazo[1,2-α]pyridine-2-carboxamide derivatives, preparation and therapeutic use thereof” (Sanofi, priority 2008, dated 2014):
Counter-ions that a name gives are not always drawn.

The molecules below were run against T1, murine Nurr 1 receptor (Mus musculus, UniProt Q06219) (assay: In vitro activity on N2A cells (NBRE-luciferase reporter gene)). Details: N2A cell line endogenously expressing Nurr 1, stably transfected with 8NBRE-luciferase; products incubated 24 hours.
T1 construct: a cell line (N2A) endogenously expressing the murine Nurr 1 receptor; host or cells: Neuro-2A (N2A) mouse neuroblastoma cells stably transfected with 8NBRE-luciferase
Type: cell-based
Experimental: Evaluation of the In Vitro Activity on N2A Cells
The activity of the compounds according to the invention was evaluated on a cell line (N2A) endogenously expressing the murine Nurr 1 receptor and stably transfected with the NOT binding response element (NBRE) coupled to the luciferase reporter gene. The EC50 values are between 0.01 and 1000 nM. The tests were performed according to the procedure described hereinbelow.
The cell line Neuro-2A is obtained from a standard commercial source (ATCC). The clone Neuro-2A was obtained from a spontaneous tumour originating from a strain of albino mice A by R. J Klebe et al. This line Neuro-2A is then stably transfected with 8NBRE-luciferase. The N2A-8NBRE cells are cultured to the point of confluence in 75 cm^2 culture flasks containing DMEM supplemented with 10% foetal calf serum, 4.5 g/L of glucose and 0.4 mg/ml of geneticin. After culturing for one week, the cells are recovered with 0.25% trypsin for 30 seconds and then resuspended in DMEM without phenol red, containing 4.5 g/L of glucose and 10% Hyclone defatted serum, and placed in white, transparent-based 96-well plates. The cells are deposited at a rate of 60 000 per well in 75 μL for 24 hours before adding the products. The products are applied in 25 μL and incubated for a further 24 hours. On the day of measurement, an equivalent volume (100 μL) of Steadylite is added to each well, and the wells are then left for 30 minutes to obtain complete lysis of the cells and maximum production of the signal. The plates are then measured in a microplate luminescence counter, after having been sealed with an adhesive film. The products are prepared in the form of a 10^−2 M stock solution, and then diluted in 100% of DMSO. Each concentration of product is prediluted in culture medium before incubation with the cells thus containing 0.625% final of DMSO.

T1 sequence (Q06219 whole entry): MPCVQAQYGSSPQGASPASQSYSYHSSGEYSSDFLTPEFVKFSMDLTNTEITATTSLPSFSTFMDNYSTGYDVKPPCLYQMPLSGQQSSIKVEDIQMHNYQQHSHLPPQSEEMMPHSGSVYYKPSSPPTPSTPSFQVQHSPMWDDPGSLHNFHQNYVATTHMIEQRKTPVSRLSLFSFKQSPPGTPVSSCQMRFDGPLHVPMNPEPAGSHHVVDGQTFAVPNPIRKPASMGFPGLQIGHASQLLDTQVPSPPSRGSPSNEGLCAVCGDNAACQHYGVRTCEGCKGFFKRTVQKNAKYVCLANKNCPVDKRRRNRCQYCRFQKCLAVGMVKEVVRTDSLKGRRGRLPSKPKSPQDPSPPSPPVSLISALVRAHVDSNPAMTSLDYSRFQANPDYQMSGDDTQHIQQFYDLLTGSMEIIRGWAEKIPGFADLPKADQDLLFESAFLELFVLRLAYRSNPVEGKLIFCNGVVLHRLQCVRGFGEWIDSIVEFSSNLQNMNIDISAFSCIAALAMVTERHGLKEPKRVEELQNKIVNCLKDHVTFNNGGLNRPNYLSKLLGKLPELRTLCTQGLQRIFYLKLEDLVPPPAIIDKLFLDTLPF

Row | EC50 | Compound
1 | 0.4 nM | O=C(Nc1cccc(F)c1)c1cn2cc(-c3nc[nH]n3)ccc2n1 [Compound 53, N-(3-Fluorophenyl)-6-(1H-1,2,4-triazol-3-yl)imidazo[1,2-a]pyridine-2-carboxamide]
2 | 1.2 nM | O=C(Nc1cccc(F)c1F)c1cn2cc(-c3ccccn3)ccc2n1 [Compound 45, N-(2,3-Difluorophenyl)-6-(pyrid-2-yl)imidazo[1,2-a]pyridine-2-carboxamide]
3 | 26.8 nM | O=C(Nc1ccccc1)c1cn2cc(C3=NCCN3)ccc2n1 [Compound 17, 6-(4,5-Dihydro-1H-imidazol-2-yl)-N-phenylimidazo[1,2-a]pyridine-2-carboxamide hydrochlorides (1:1) and (1:2)]
4 | 1.1 nM | O=C(Nc1ccccc1)c1cn2cc(-c3cn[nH]c3)ccc2n1 [Compound 29, N-Phenyl-6-(1H-pyrazol-4-yl)imidazo[1,2-a]pyridine-2-carboxamide]
5 | 0.9 nM | O=C(Nc1cc(F)cc(F)c1)c1cn2cc(-c3ccoc3)ccc2n1 [Compound 24, N-(3,5-Difluorophenyl)-6-(furan-3-yl)imidazo[1,2-a]pyridine-2-carboxamide]
6 | 0.9 nM | O=C(Nc1ccccc1)c1cn2cc(-c3ccccn3)ccc2n1 [Compound 3, N-Phenyl-6-(pyrid-2-yl)imidazo[1,2-a]pyridine-2-carboxamide]
